Results on 47 molecules are retold here after ChEMBL document CHEMBL3091347, “Comparison of Multiple Linear Regressions and Neural Networks based QSAR models for the design of new antitubercular compounds” (Eur J Med Chem, 2013).

Each structure is given as a SMILES string. ≈ marks a conversion by molar mass, not a printed value.

The nature of series [1]: Lipophilicity, log P of the compound. The note with it: octanol/water.
Series [2] has as its system Mycobacterium tuberculosis. The series can be described thus: Antitubercular activity against Mycobacterium tuberculosis. Type of series: functional. The note with it: for MIC: Mycobacterium tuberculosis.
In series [3] the test system is Mycobacterium tuberculosis. Kind of series: Antitubercular activity against Mycobacterium tuberculosis BCG. In kind it is functional.

In series [1] (logP), `NNC(=O)c1ccc([N+](=O)[O-])o1` displayed a logP of -0.396. Further, in series [2], the “log(1/MIC)” value turned out to be 0.1 and the MIC was 0.8 µg/mL (≈ 4.68 µM).
Molecule `NNC(=O)c1ccccc1[N+](=O)[O-]` yielded a logP in series [1] (logP) of -1.1. Also, in series [2], the “log(1/MIC)” value was -2.48 and the MIC was found to be 300 µg/mL (≈ 1660 µM).
In series [1] (logP), `NNC(=O)c1ccncn1` showed a logP of -2.87. For the same molecule, in series [3], the MIC was 20 µg/mL (≈ 145 µM) and the “log(1/MIC)” value is -1.301.
`NNC(=O)c1c[nH]cn1` had a log partition coefficient (logP) in series [1] (logP) of -2.85. Moreover, in series [2], the “log(1/MIC)” value is given as -0.9 and the lowest concentration to inhibit growth (MIC) was 8 µg/mL (≈ 63.4 µM).
In the same order, the values of `NNC(=O)c1cccc([N+](=O)[O-])c1` are -1.1, 0.22 and 0.6 µg/mL (≈ 3.31 µM).
In the same order, the values of `CN(C)C(=O)N1CCC(C(=O)NN)CC1` are -3.12, -2.78 and 600 µg/mL (≈ 2800 µM).
In series [1] (logP), `CC(=O)NNC(=O)c1ccncc1` came in with a logP of -3.45. Besides, in series [2], the “log(1/MIC)” value is -1.18 and the MIC turned out to be 15 µg/mL (≈ 83.7 µM).
In series [1] (logP), `Cc1ccc(C)n1NC(=O)c1cccs1` showed a log partition coefficient (logP) of 1.98. For the same molecule, in series [3], 40 µg/mL (≈ 182 µM) was the least that counted as inhibitory (MIC) and the “log(1/MIC)” value is reported as -1.602.
Consider `CC(=O)N(Nc1ccccc1)c1ccccc1`, for which the logP in series [1] (logP) was found to be 1.31. In series [2], the “log(1/MIC)” value is reported as -2 and it took 100 µg/mL (≈ 442 µM) to inhibit growth (MIC).
In the case of `O=C(NNC(=O)c1ccco1)c1ccco1`, the logP in series [1] (logP) stood at 1.38. Besides, in series [2], the “log(1/MIC)” value is given as -2 and the MIC turned out to be 100 µg/mL (≈ 454 µM).
For the molecule `NNC(=O)c1nc2ccccc2s1`, the logP in series [1] (logP) is -1.08. In series [3], the MIC worked out at 8 µg/mL (≈ 41.4 µM) and the “log(1/MIC)” value was -0.9031.
Regarding `Cc1c(C(=O)NN)sc(C(=O)NN)c1C`, the logP in series [1] is recorded as -2.888. In addition, in series [3], the lowest concentration to inhibit growth (MIC) was 30 µg/mL (≈ 131 µM) and the “log(1/MIC)” value is -1.477.
`NNC(=O)CN1CSC(N)=N1` came in with a logP in series [1] of -4.033. Moreover, in series [2], the “log(1/MIC)” value is given as -2.48 and the lowest concentration to inhibit growth (MIC) was 300 µg/mL (≈ 1710 µM).
Consider `C/C(=N\NC(=O)c1ccncc1)c1cccc(CN2CCCCC2)c1O`, for which the lipophilicity (logP) in series [1] (logP) is 2.55. In series [2], the “log(1/MIC)” value is recorded as -0.21 and the MIC was 1.62 µg/mL (≈ 4.6 µM).
`C/C(=N\NC(=O)c1ccncc1)c1cccc(CN2CCN(C)CC2)c1O` gave a logP in series [1] (logP) of 1.99. For the same molecule, in series [2], the “log(1/MIC)” value was -0.52 and it took 3.28 µg/mL (≈ 8.93 µM) to inhibit growth (MIC).
For `CC(C)=NNC(=O)c1cccs1` the same measures were -0.404, 0.35 and 0.45 µg/mL (≈ 2.47 µM).
In series [1] (logP), `CC(C)(C#N)NNC(=O)c1cccs1` had a logP of 0.147. Moreover, in series [3], the lowest concentration to inhibit growth (MIC) was 3 µg/mL (≈ 14.3 µM) and the “log(1/MIC)” value is given as -0.4771.
For `O=C(N/N=C/C(O)C(O)C(O)C(O)CO)c1cccs1` (centres undefined), in series [1], the logP was -4.917. Moreover, in series [3], the minimum inhibitory concentration (MIC) was found to be 0.6 µg/mL (≈ 1.97 µM) and the “log(1/MIC)” value amounted to 0.2218.
`NNC(=O)c1ccc[nH]1` returned a logP in series [1] (logP) of -1.99. In series [3], 60 µg/mL (≈ 479 µM) was the least that counted as inhibitory (MIC) and the “log(1/MIC)” value is given as -1.778.
For `NNC(=O)Cc1cc2ccccc2[nH]1` the same measures were -1.61, 60 µg/mL (≈ 317 µM) and -1.778.
For `NNC(=O)c1nc2ccccc2[nH]1` the same measures were -1.73, 15 µg/mL (≈ 85.1 µM) and -1.176.
As for `NNC(=O)c1nccnc1C(=O)NN`, the logP in series [1] is recorded as -5.666. Besides, in series [3], the MIC came to 15 µg/mL (≈ 76.5 µM) and the “log(1/MIC)” value was -1.176.
In series [1] (logP), `NNC(=O)c1cnc(N)s1` displayed a logP of -2.78. In series [3], 6 µg/mL (≈ 37.9 µM) was the least that counted as inhibitory (MIC) and the “log(1/MIC)” value is -0.7782.
For `NNC(=O)c1csc(N)n1` the same measures were -2.69, 3 µg/mL (≈ 19 µM) and -0.4771.
As to `CN(C)NC(=O)c1ccco1`, the logP in series [1] (logP) amounted to 0.653. Moreover, in series [2], the “log(1/MIC)” value was -2.48 and it took 300 µg/mL (≈ 1950 µM) to inhibit growth (MIC).
In series [1] (logP), `CC(C)/C=N\NC(=O)c1ccco1` displayed a log partition coefficient (logP) of 1.19. Also, in series [2], the “log(1/MIC)” value was found to be 0.82 and inhibition of growth (MIC) required 0.15 µg/mL (≈ 0.832 µM).
In the same order, the values of `O=C(N/N=C/C(O)C(O)C(O)C(O)CO)c1ccco1` (centres undefined) are -3.86, -0.78 and 6 µg/mL (≈ 20.8 µM).
As to `CC(=O)NNC(=O)c1ccco1`, the logP in series [1] (logP) is -1.26. Besides, in series [2], the “log(1/MIC)” value is given as -2.78 and the MIC was 600 µg/mL (≈ 3570 µM).
For `NNC(=O)C1CCCO1` (centres undefined) the same measures were -2.12, 0.52 and 0.3 µg/mL (≈ 2.31 µM).
As to `NNC(=O)c1cccs1`, the logP in series [1] (logP) is -1.2. Besides, in series [2], the “log(1/MIC)” value is recorded as -0.9 and inhibition of growth (MIC) required 8 µg/mL (≈ 56.3 µM).
`NNS(=O)(=O)c1ccc(N)cc1` returned a logP in series [1] (logP) of -1.85. Also, in series [2], the “log(1/MIC)” value is on record as -1.4 and the minimum inhibitory concentration (MIC) is 25 µg/mL (≈ 134 µM).
`CC(=O)NNC(C)=O` gave a logP in series [1] (logP) of -3.91. Further, in series [2], the “log(1/MIC)” value is reported as -2.78 and it took 600 µg/mL (≈ 5170 µM) to inhibit growth (MIC).
In the same order, the values of `CON1C(=O)C(=O)N1c1ccc([N+](=O)[O-])cc1` are 0.963, 1.52 and 0.03 µg/mL (≈ 0.126 µM).
Take `Nc1ccc(S(=O)(=O)NNC(=O)c2ccncc2)cc1`: the logP in series [1] (logP) was -2.51. Also, in series [2], the “log(1/MIC)” value is given as -2.78 and the minimum inhibitory concentration (MIC) turned out to be 600 µg/mL (≈ 2050 µM).
`NNC(=O)/C=C/C(=O)NN`: in series [2], the “log(1/MIC)” value is -1.9 and the MIC is 80 µg/mL (≈ 555 µM).
As for `CNC1C(OC2C(OC3C(O)C(O)C(NC(=N)N)C(O)C3NC(=N)N)OC(C)C2(O)/C=N\NC(=O)c2ccncc2)OC(CO)C(O)C1O` (centres undefined), in series [2], the “log(1/MIC)” value came out at 0.82 and the MIC was determined as 0.15 µg/mL (≈ 0.214 µM).
Molecule `NNC(=O)c1ccccn1` displayed a logP in series [1] (logP) of -1.95. Also, in series [2], the “log(1/MIC)” value is given as 0.82 and the MIC came out at 0.15 µg/mL (≈ 1.09 µM).
For the molecule `NNC(=O)c1cncs1`, the logP in series [1] (logP) is -2.2. Further, in series [3], the MIC is 10 µg/mL (≈ 69.8 µM) and the “log(1/MIC)” value is listed as -1.
Turning to `NNC(=O)c1c[nH]c(S)n1`, the logP in series [1] (logP) is -2.26. Moreover, in series [2], the “log(1/MIC)” value is given as -2.4 and the MIC was found to be 250 µg/mL (≈ 1580 µM).
Take `NNC(=O)Cc1ccccc1`: the logP in series [1] (logP) was -1.22. In series [2], the “log(1/MIC)” value is reported as -1.08 and the lowest concentration to inhibit growth (MIC) was 12 µg/mL (≈ 79.9 µM).
For the molecule `Cn1cncc1C(=O)NN`, the logP in series [1] (logP) was -2.55. In series [3], the MIC turned out to be 300 µg/mL (≈ 2140 µM) and the “log(1/MIC)” value is listed as -2.477.
The molecule `NNC(=O)c1ccco1` yielded a logP in series [1] (logP) of -0.139. In addition, in series [2], the “log(1/MIC)” value stood at 1.22 and the MIC turned out to be 0.06 µg/mL (≈ 0.476 µM).
For `NNC(=O)c1cscn1`, the logP in series [1] (logP) is -2.05. In series [3], the MIC stood at 15 µg/mL (≈ 105 µM) and the “log(1/MIC)” value was -1.176.
In the case of `CN1CCC(C(=O)NN)CC1`, the logP in series [1] (logP) is -2.49. In series [2], the “log(1/MIC)” value is listed as -2.78 and inhibition of growth (MIC) required 600 µg/mL (≈ 3820 µM).
In series [1] (logP), `O=C(NNC(=O)c1cccs1)c1cccs1` yielded a logP of -0.738. Also, in series [3], the lowest concentration to inhibit growth (MIC) was 15 µg/mL (≈ 59.4 µM) and the “log(1/MIC)” value is reported as -1.176.
For `NNC(=O)c1cccnc1` [NICOTINIC ACID HYDRAZIDE], the log partition coefficient (logP) in series [1] is -2.32. Besides, in series [3], the MIC worked out at 2 µg/mL (≈ 14.6 µM) and the “log(1/MIC)” value is -0.301.
As to `NNC(=O)c1cnccn1` [PYRAZINE CARBOXYLIC ACID HYDRAZIDE], the logP in series [1] (logP) was -2.87. In series [3], the MIC came out at 1.5 µg/mL (≈ 10.9 µM) and the “log(1/MIC)” value is -0.1761.

The term logP denotes the decadic logarithm of the partition coefficient of the neutral form, usually between octanol and water. What is called MIC is the smallest concentration in the dilution series that meets the test's criterion for growth inhibition. A low value points to greater potency.
